We go through 4 compounds from ChEMBL document CHEMBL2016443, “From ApoA1 upregulation to BET family bromodomain inhibition: discovery of I-BET151” (Bioorg Med Chem Lett, 2012).

SMILES strings stand for the structures. Active and inactive are the calls of the source. No cut-off for these calls is given here.

In data set [1] the test system is PBMC. Nature of the data set: Inhibition of LPS-stimulated TNFalpha production in human PBMC. The class given is functional, cell-based.
The nature of data set [2]: Oral bioavailability in CD rat. The class given is ADME, organism-based. To be noted: in vivo.
Another data set deals with HepG2. Nature of the data set: Upregulation of ApoA1 expression in human HepG2 cells assessed as concentration required to increase 70% of luciferase activity after 18 hrs by luciferase reporter gene assay. The class given is functional.
The next data set deals with Cytochrome P450 2C9 (Homo sapiens, UniProt P11712). Nature of the data set: Inhibition of CYP2C9. The class given is ADME.
The next data set has as its system Salmonella typhimurium. The experiment in a line: Mutagenic activity in Salmonella typhimurium by Ames assay. The class given is toxicity, organism-based. To be noted: salmonella enterica subsp. enterica serovar typhimurium. A general note: The Ames test detects mutagens through reverse mutation in bacteria.
Data set [3] concerns PBMC. Nature of the data set: Inhibition of LPS-stimulated IL-6 production in human PBMC. The class given is functional, cell-based.
For data set [4], the system named is Hepatocyte. Nature of the data set: Bioactivation in human hepatocytes assessed as compound epoxidation. The class given is cell-based.
A short description of data set [5]: Clearance in iv dosed CD rat blood after 1 hr. The class given is ADME, organism-based. To be noted: whole blood.
Data set [6] is described as follows: (§1) Half life in CD rat. The class given is ADME, organism-based. To be noted: CD, in vivo.
The test system of data set [7] is Hepatocyte. Nature of the data set: Bioactivation in human hepatocytes assessed as glutathione trapping. The class given is cell-based.
Data set [8] can be described thus: Volume of distribution at steady state in CD rat. To be noted: in vivo, read-out: Vdss. The class given is ADME, organism-based.
Another data set deals with THP-1. Nature of the data set: Antiinflammatory activity in human THP1 cells. The class given is functional, cell-based.
For data set [9], the species on record is Rattus norvegicus. The experiment in a line: Dose normalized AUC (0 to infinity ) in CD rat. The class given is ADME, organism-based. To be noted: in vivo.
Data set [10] relates to Hepatocyte. Nature of the data set: Bioactivation in rat hepatocytes assessed as glutathione trapping. The class given is cell-based.
Data set [11] concerns Hepatocyte. The experiment in a line: Bioactivation in rat hepatocytes assessed as compound epoxidation. The class given is cell-based.
The target in the next data set is Cytochrome P450 3A4 (Homo sapiens, UniProt P08684). Nature of the data set: Inhibition of CYP3A4. The class given is ADME.
The subject of data set [12] is Mus musculus. The experiment in a line: Antiinflammatory activity in LPS-stimulated acute inflammation BALB/c mouse model assessed as inhibition of plasma MCP-1 level at 10 mg/kg, po administered 2 hrs before LPS challenge. The class given is functional.
Data set [13] concerns Mus musculus. The experiment in a line: Antiinflammatory activity in LPS-stimulated acute inflammation BALB/c mouse model assessed as inhibition of plasma TNF-alpha level at 10 mg/kg, po administered 2 hrs before LPS challenge. The class given is functional.
The test system of data set [14] is Mus musculus. The experiment in a line: Antiinflammatory activity in LPS-stimulated acute inflammation BALB/c mouse model assessed as inhibition of plasma IL-6 level at 10 mg/kg, po administered 2 hrs before LPS challenge. The class given is functional.
Data set [15] relates to Mus musculus. The experiment in a line: Antiinflammatory activity in LPS-stimulated acute inflammation BALB/c mouse model assessed as inhibition of plasma PAI-1 level at 10 mg/kg, po administered 2 hrs before LPS challenge. The class given is functional.
Data set [16] is filed under the species Rattus norvegicus. Described as §1. The class given is ADME, organism-based. To be noted: in vivo.

Chain of Cytochrome P450 2C9 (P11712 whole entry): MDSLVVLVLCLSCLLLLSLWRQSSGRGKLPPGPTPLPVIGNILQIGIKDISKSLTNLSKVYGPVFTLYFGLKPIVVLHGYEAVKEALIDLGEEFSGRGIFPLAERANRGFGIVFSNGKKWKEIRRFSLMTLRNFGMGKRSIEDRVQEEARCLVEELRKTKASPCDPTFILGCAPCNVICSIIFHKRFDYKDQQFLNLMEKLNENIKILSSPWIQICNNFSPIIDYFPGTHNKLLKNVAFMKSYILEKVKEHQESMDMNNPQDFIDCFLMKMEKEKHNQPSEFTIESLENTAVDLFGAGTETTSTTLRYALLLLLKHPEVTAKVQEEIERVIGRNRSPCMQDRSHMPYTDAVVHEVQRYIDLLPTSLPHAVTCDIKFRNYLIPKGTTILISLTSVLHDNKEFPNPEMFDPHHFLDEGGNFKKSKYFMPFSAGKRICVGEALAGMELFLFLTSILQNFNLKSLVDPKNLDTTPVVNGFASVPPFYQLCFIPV
Chain of Cytochrome P450 3A4 (P08684 whole entry): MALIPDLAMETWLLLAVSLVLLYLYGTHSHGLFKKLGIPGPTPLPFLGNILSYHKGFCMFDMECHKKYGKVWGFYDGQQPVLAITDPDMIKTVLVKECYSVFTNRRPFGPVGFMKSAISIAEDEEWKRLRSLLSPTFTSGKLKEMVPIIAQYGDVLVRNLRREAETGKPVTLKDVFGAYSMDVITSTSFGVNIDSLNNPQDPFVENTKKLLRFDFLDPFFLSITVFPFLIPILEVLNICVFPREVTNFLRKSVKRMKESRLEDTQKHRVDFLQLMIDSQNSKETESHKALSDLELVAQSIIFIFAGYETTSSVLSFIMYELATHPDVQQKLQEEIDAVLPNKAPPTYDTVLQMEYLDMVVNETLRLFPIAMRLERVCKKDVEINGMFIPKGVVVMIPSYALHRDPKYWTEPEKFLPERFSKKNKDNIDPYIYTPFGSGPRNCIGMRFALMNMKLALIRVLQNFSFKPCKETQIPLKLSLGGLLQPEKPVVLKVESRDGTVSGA

As for `COc1cc2c(Nc3cccc4cccnc34)c(C(N)=O)cnc2cc1-c1c(C)noc1C`, the outcome with PBMC [1], in the data set with PBMC [3] and in the data set with THP-1 was Active. For the same compound, the bioavailability (in general, the share of a dose that reaches the circulation, judged against a reference dose that is usually intravenous) in [2] is 59%. Moreover, in the data set with HepG2, the EC170 was determined as 0.22 µM. In addition, the results for the half-maximal inhibitory concentration (IC50) on Cytochrome P450 2C9 and against Cytochrome P450 3A4 were 2.8 µM and 3900 nM, respectively. Further, the Activity entry in the data set with Salmonella typhimurium is recorded as “Toxic”. The Drug metabolism result in the data set with Hepatocyte [4], in the data set on Hepatocyte [7], in the data set on Hepatocyte [10] and in the data set on Hepatocyte [11] was “Active” throughout. Also, in data set [5], the clearance – broadly, a measure of how efficiently the substance is removed, as volume per time – was 50 mL/min/kg. Also, the half-life (usually how long it takes for the measured level to halve) in data set [6] is 66 min. Also, in data set [8], the Vd is 4 L/kg. This compound registered an AUC/dose in the data set filed under Rattus norvegicus [9] of 12 kg·min/L.
Regarding `C[C@]12C=CC(=O)C=C1CC[C@@H]1[C@@H]2[C@@H](O)C[C@@]2(C)[C@H]1CC[C@]2(O)C(=O)CO` [PREDNISOLONE], the inhibition in vivo (as a rule, the relative decrease from the control value, in per cent) at 10 mg/kg with Mus musculus [12] amounted to 49%; in the data set on Mus musculus [13] it was 94%; in the data set with Mus musculus [14], 59%; in the data set on Mus musculus [15], 43%.
Turning to `COc1cc2c(cc1-c1c(C)noc1C)ncc1[nH]c(=O)n([C@H](C)c3ccccn3)c12`, the inhibition entry in the data set on PBMC [1] and with PBMC [3] was “Dose-dependent effect” each time. In [2], the bioavailability is 66%. Also, in the data set on HepG2, the EC170 came out at 0.09 µM. Besides, half-maximal inhibition at Cytochrome P450 2C9 (IC50) was put at 9.9 µM. In addition, the inhibition in vivo at 10 mg/kg with Mus musculus [12] was 47%; with Mus musculus [13], 65%; with Mus musculus [14], 75%; with Mus musculus [15], 35%. Moreover, the Activity result in the data set with Salmonella typhimurium was “Non-toxic”. The Drug metabolism entry with Hepatocyte [4], in the data set with Hepatocyte [7], with Hepatocyte [10] and in the data set with Hepatocyte [11] was “Not Active” throughout. This compound gave a t1/2 in the data set filed under Rattus norvegicus [16] of 1.7 h. Besides, the Vd in data set [8] amounted to 2.1 L/kg. The result in the data set with THP-1 was Active. Besides, the AUC/dose in the data set listed under Rattus norvegicus [9] was found to be 38 kg·min/L.
`COc1cc2c(Nc3ccccc3N3CCOCC3)c(C(N)=O)cnc2cc1-c1c(C)noc1C`: the outcome in the data set with PBMC [1], in the data set on PBMC [3] and with THP-1 was Active. Moreover, the EC170 with HepG2 came out at 0.09 µM. The IC50 (commonly the concentration that inhibits the measured activity by half) at Cytochrome P450 2C9 is 5.1 µM; against Cytochrome P450 3A4 it was 1500 nM.
